Literature values as cited in patent US20210023023A1, “LIPOSOMAL NUTRACEUTICAL COMPOSITIONS AND METHODS OF MAKING THE SAME” (VASAYO, LLC, priority 2019, published 2021).

Details: in studies

For `C=C(C)[C@@H]1CCC(C)=C[C@H]1c1c(O)cc(CCCCC)cc1O` [CBD, cannabidiol], the “anti-inflammatory effects, potency relative to aspirin” value is given as “several hundred times more potent than aspirin”.
